These results are taken from ChEMBL document CHEMBL3608244, “Left-Hand Side Exploration of Novel Bacterial Topoisomerase Inhibitors to Improve Selectivity against hERG Binding” (ACS Med Chem Lett, 2015).

The nature of series [1]: Solubility of the compound. In kind it is physicochemical.
For series [2], the system named is Mycobacterium tuberculosis. The experiment in a line: Antimycobacterial activity against Mycobacterium tuberculosis H37Rv ATCC 27294 incubated for 7 days by microdilution method. The format is functional. To be noted: H37Rv ATCC 27294, 168 h. (In general: Broth dilution looks for growth in wells or tubes with falling amounts of substance.)
In series [3] the test system is Caco-2. Description: Permeability across human Caco2 cells. The format is ADME, cell-based. On the technique in general: Caco-2 monolayers are a common model of the intestinal barrier.
Series [4] has as its target DNA gyrase subunit A/DNA gyrase subunit B (Mycobacterium tuberculosis (strain ATCC 25618 / H37Rv), UniProt P9WG45+P9WG47). Description: Inhibition of Mycobacterium tuberculosis H37Rv DNA gyrase assessed as supercoiling of pBR322 DNA after 90 mins by agarose gel electrophoresis method.
Series [5] deals with Mycobacterium tuberculosis. The experiment in a line: Antimycobacterial activity against Mycobacterium tuberculosis infected in human THP1 cells assessed as bacteria killing effect at 1 to 16 ug/ml. The format is functional, THP-1.
Series [6] deals with Mycobacterium tuberculosis. The experiment in a line: Antimycobacterial activity against Mycobacterium tuberculosis in acute mouse model of tuberculosis assessed as bacteria killing effect at 100 mg/kg, po bid administered for 10 days relative to early control. In kind it is functional.
Series [7] concerns Mycobacterium tuberculosis. Description: Antimycobacterial activity against Mycobacterium tuberculosis infected in human THP1 cells assessed as bacteria killing effect. The settings on record: THP-1. In kind it is functional, organism-based.
Series [8] concerns the target Voltage-gated inwardly rectifying potassium channel KCNH2 (Homo sapiens, UniProt Q12809).
Description: Inhibition of human ERG by IonWorks assay

The structures appear in SMILES notation. ≈ marks a conversion by molar mass, not a printed value.

Chain of DNA gyrase subunit A/DNA gyrase subunit B (P9WG45 whole entry): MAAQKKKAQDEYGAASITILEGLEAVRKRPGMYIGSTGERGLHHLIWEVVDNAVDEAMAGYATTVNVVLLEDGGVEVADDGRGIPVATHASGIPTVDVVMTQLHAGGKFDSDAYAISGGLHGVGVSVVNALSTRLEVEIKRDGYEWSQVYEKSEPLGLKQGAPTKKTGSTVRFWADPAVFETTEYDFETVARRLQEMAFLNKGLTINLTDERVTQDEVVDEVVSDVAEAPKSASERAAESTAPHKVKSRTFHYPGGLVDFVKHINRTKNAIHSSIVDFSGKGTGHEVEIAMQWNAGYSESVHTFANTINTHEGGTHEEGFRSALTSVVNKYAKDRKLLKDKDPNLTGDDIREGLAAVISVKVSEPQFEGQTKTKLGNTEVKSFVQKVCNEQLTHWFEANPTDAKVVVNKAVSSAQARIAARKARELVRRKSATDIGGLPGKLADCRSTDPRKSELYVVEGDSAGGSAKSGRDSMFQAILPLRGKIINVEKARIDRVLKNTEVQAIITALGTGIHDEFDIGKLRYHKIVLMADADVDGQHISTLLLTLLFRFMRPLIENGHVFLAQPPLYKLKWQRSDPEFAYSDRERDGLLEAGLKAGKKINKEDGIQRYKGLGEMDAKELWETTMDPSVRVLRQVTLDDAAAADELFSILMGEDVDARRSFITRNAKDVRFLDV
Chain of DNA gyrase subunit A/DNA gyrase subunit B (P9WG47 whole entry): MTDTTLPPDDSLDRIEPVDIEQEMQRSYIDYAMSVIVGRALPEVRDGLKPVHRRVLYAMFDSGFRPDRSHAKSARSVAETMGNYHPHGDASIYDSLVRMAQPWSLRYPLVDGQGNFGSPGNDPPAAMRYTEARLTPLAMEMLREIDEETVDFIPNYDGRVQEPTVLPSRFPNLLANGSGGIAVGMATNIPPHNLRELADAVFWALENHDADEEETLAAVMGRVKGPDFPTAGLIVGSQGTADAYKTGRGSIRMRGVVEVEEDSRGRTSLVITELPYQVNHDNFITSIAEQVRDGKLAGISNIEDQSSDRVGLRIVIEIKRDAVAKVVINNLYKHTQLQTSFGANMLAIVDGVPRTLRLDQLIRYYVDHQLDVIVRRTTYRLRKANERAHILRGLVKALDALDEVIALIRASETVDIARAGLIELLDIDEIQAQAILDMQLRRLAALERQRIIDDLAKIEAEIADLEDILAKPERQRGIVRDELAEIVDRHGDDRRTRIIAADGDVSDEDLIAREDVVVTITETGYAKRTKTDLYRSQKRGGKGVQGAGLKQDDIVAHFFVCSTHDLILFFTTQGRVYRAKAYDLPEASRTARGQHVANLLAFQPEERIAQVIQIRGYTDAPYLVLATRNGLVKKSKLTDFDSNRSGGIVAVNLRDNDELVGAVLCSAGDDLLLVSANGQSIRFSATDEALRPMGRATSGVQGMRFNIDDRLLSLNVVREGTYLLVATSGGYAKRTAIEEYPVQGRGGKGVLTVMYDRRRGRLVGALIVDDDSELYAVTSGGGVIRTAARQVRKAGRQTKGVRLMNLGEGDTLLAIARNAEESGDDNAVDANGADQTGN
Chain of Voltage-gated inwardly rectifying potassium channel KCNH2 (Q12809 whole entry): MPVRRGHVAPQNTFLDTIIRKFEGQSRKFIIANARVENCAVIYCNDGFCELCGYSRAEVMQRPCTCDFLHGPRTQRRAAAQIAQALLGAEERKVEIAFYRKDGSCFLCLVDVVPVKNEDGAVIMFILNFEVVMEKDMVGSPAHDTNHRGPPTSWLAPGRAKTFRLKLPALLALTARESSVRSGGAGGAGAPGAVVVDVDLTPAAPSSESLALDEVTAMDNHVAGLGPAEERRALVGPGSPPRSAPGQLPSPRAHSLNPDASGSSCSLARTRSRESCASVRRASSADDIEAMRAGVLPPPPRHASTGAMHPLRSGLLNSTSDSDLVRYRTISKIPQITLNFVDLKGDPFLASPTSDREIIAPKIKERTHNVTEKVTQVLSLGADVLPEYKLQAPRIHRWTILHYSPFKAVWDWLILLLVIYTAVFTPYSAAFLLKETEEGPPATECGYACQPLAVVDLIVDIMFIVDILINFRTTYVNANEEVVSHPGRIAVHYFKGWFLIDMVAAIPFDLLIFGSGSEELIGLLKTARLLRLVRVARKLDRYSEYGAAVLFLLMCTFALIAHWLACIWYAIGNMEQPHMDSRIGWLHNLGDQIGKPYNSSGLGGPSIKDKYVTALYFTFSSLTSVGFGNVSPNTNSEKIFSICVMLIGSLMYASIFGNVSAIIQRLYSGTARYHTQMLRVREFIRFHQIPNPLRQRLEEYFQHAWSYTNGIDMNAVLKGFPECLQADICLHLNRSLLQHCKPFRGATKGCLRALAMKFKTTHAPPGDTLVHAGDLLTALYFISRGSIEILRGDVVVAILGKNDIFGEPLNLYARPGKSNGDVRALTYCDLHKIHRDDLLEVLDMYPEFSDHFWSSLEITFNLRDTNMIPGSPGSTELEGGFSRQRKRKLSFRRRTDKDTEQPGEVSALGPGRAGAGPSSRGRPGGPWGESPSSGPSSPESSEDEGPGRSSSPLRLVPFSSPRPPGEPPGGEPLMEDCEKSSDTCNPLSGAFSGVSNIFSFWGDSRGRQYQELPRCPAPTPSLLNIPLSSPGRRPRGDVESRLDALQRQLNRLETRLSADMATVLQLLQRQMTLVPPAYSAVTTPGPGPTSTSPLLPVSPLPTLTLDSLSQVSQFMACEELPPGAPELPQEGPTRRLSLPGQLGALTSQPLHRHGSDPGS

Usually solubility stands for how much of the substance goes into solution per volume. Lower therefore signals little dissolved substance. The MIC is the lowest concentration found to suppress growth. Read a low MIC as inhibition by little substance. As a reminder, the IC50 is the concentration at which inhibition is half-maximal. The compound `O=C1COc2ccc(CN[C@@H]3CCN(CCn4c(=O)ccc5ncc(Oc6cccnc6)cc54)C[C@@H]3F)nc2N1` had a solubility in series [1] of 665 µM (≈ 363 µg/mL). The minimal inhibitory concentration (MIC) in series [2] amounted to 0.25 µM (≈ 0.136 µg/mL). Moreover, the permeability entry in series [3] is on record as “permeable”. The 50% inhibitory concentration (IC50) in series [4] is 800 nM. Also, the LCK is recorded as 1 in series [5] and over 1 in series [6]. The Activity entry in series [7] is “Dose-dependent effect”.
Consider `Cc1cc2[nH]c(C3CCN(CCn4c(=O)ccc5ncc(Oc6ccc(S(N)(=O)=O)cc6)cc54)CC3)nc2cc1C#N`, for which the MIC in series [2] was determined as 0.25 µM (≈ 0.146 µg/mL). The same compound came in with an IC50 in series [8] of over 33 µM.
On to `O=C(O)c1cn(C2CC2)c2cc(N3CCNCC3)c(F)cc2c1=O` [CIPROFLOXACIN], for which the MIC in series [2] is 0.5 µM (≈ 0.166 µg/mL). In other words, the sub-micromolar range.
On the same count and under the same terms, the value for `O=C1COc2ccc(CNC3CCN(CCn4c(=O)ccc5ncc(O[C@H]6CCOC6)cc54)CC3)nc2N1` was 0.5 µM (≈ 0.26 µg/mL).
As to `O=C1COc2ccc(CNC3CCN(CCn4c(=O)ccc5ncc(Oc6ccon6)cc54)CC3)nc2N1`, the concentration in solution in series [1] (solubility) was 665 µM (≈ 344 µg/mL). In series [2], this compound gave a minimal inhibitory concentration (MIC) of 0.25 µM (≈ 0.129 µg/mL). Also, the permeability result in series [3] is reported as “permeable”.
`Cc1ncc(CNC2CCN(CCn3c(=O)ccc4ncc(F)cc43)CC2)cc1Cl` yielded a minimum inhibitory concentration (MIC) in series [2] of 0.19 µM (≈ 0.0817 µg/mL). Moreover, the IC50 in series [4] worked out at 250 nM.
On to `Cn1ccc(COc2cnc3ccc(=O)n(CCN4CCC(NCc5ccc6c(n5)NC(=O)CO6)CC4)c3c2)n1`, for which 0.25 µM (≈ 0.136 µg/mL) was the least that counted as inhibitory in series [2] (MIC). This counts as sub-micromolar.
Compound `Cc1ncc(CNC2CCN(CCn3c(=O)ccc4ncc(Oc5ccc(S(N)(=O)=O)cc5)cc43)CC2)cc1Cl` gave a minimal inhibitory concentration (MIC) in series [2] of 0.06 µM (≈ 0.035 µg/mL). This compound returned an IC50 in series [8] of 82 µM.
Regarding `O=C1COc2ccc(CNC3CCN(CCn4c(=O)ccc5ncc(OCc6cccnn6)cc54)CC3)nc2N1`, the MIC in series [2] turned out to be 1 µM (≈ 0.543 µg/mL).
Same read-out and setting: the value for `O=C1COc2ccc(CNC3CCN(CCn4c(=O)ccc5ncc(OCc6ccccn6)cc54)CC3)nc2N1` was 0.5 µM (≈ 0.271 µg/mL).
The compound `O=C1COc2ccc(CNC3CCN(CCn4c(=O)ccc5ccc(Cl)nc54)CC3)nc2N1` registered an MIC in series [2] of 0.19 µM (≈ 0.0891 µg/mL). The concentration for half-maximal inhibition (IC50) in series [4] came out at 110 nM.
In series [2], `NS(=O)(=O)c1ccc(Oc2cnc3ccc(=O)n(CCN4CCC(c5nc6cc(Cl)ccc6[nH]5)CC4)c3c2)cc1` showed a minimum inhibitory concentration (MIC) of 0.19 µM (≈ 0.11 µg/mL). Besides, the permeability entry in series [3] was “impermeable”.
Take `O=C1COc2ccc(CNC3CCN(CCn4c(=O)ccc5ccc(Oc6ccon6)nc54)CC3)nc2N1`: the MIC in series [2] turned out to be 0.25 µM (≈ 0.129 µg/mL).
In turn, `O=C1COc2ccc(CNC3CCN(CCn4c(=O)ccc5ncc(Oc6cncc(F)c6)cc54)CC3)nc2N1` showed an MIC in series [2] of 0.25 µM (≈ 0.136 µg/mL).
For `O=C1COc2ccc(CN[C@@H]3CCN(CCn4c(=O)ccc5ncc(Oc6ccon6)cc54)C[C@@H]3F)nc2N1`, the concentration in solution in series [1] (solubility) came to 665 µM (≈ 356 µg/mL). In series [2], this compound had a minimum inhibitory concentration (MIC) of 0.25 µM (≈ 0.134 µg/mL). Moreover, the permeability entry in series [3] is “permeable”.
In series [2], `O=C1COc2ccc(CNC3CCN(CCn4c(=O)ccc5ncc(O[C@@H]6CCOC6)cc54)CC3)nc2N1` displayed an MIC of 0.25 µM (≈ 0.13 µg/mL).
In series [2], `NS(=O)(=O)c1ccc(Oc2ccc3ccc(=O)n(CCN4CCC(NCc5ccc6c(n5)NC(=O)CO6)CC4)c3n2)cc1` gave an MIC of 0.03 µM (≈ 0.0182 µg/mL). The IC50 in series [8] is over 100 µM. Also, the permeability entry in series [3] is listed as “impermeable”.
`Cc1ncc(CNC2CCN(CCn3c(=O)ccc4ncc(Oc5ccc(S(N)(=O)=O)cc5)cc43)CC2)cc1C#N` came in with an MIC in series [2] of 0.06 µM (≈ 0.0344 µg/mL). The compound further yielded an IC50 in series [8] of over 100 µM.
In series [2], `NNC(=O)c1ccncc1` [ISONIAZID] displayed an MIC of 0.06 µM (≈ 0.00823 µg/mL).
Same read-out and setting: the value for `COc1c(N2C[C@@H]3CCCN[C@@H]3C2)c(F)cc2c(=O)c(C(=O)O)cn(C3CC3)c12` [MOXIFLOXACIN] was 0.13 µM (≈ 0.0522 µg/mL).
Turning to `O=C1COc2ccc(CNC3CCN(CCn4c(=O)ccc5ncc(Oc6cccnc6)cc54)CC3)nc2N1`, the solubility in series [1] was determined as 665 µM (≈ 351 µg/mL). In addition, the MIC in series [2] is 0.06 µM (≈ 0.0317 µg/mL). In addition, in series [3], the permeability result was “permeable”.
Consider `O=C1COc2ccc(CNC3CCN(CCn4c(=O)ccc5ccc(Oc6cncnc6)nc54)CC3)nc2N1`, for which the MIC in series [2] came to 0.25 µM (≈ 0.132 µg/mL). Besides, the 50% inhibitory concentration (IC50) in series [8] was over 224 µM; in series [4], 173 nM.
For the compound `O=C1COc2ccc(CNC3CCN(CCn4c(=O)ccc5ccc(Oc6cccnc6)nc54)CC3)nc2N1`, in series [2], the MIC is 0.06 µM (≈ 0.0317 µg/mL). Also, the IC50 in series [4] came to 104 nM.
For the compound `COc1cnc2ccc(=O)n(CCN3CCC(c4nc5cc(Cl)ccc5[nH]4)CC3)c2c1`, in series [2], 0.25 µM (≈ 0.109 µg/mL) was the least that counted as inhibitory (MIC).
In series [2], `COc1ccc2ccc(=O)n(CCN3CCC(NCc4ccc5c(n4)NC(=O)CO5)CC3)c2n1` returned a minimal inhibitory concentration (MIC) of 0.25 µM (≈ 0.116 µg/mL). The compound also registered an IC50 in series [8] of 23 µM.
